From paper PMC8654833 (Scientific Reports, 2021)
Where “and” joins values, the source holds several entries; their conditions need not be identical. Identical values can stand only once.

Legend:
NET [1] = target: T1, NET (Homo sapiens, UniProt P23975); assay: Single-concentration radioligand binding screen (Eurofins Cerep), norepinephrine transporter; conditions: single concentration 10 µM screen, 3H]nisoxetine
T1 construct: Euroscreen FAST (contract assay)
Method: (§1) This study included binding assays (87 GPCR targets), measured as % of binding inhibition of a reference radioligand, as well as uptake and enzyme assays (19 targets), the latter measured as % inhibition of control enzyme activity. […] It was performed by radioligand binding competition by Euroscreen (Euroscreen FAST, Belgium). The following nanomolar concentrations were tested in duplicate: 0.001, 0.01, 0.1, 1, 10, 100, 1000, 10,000. Dose–response curves were fitted with the least squares method. IC50 results are shown as pIC50, corresponding to the negative log10 of IC50 in molar.

[2] = Stability in vehicle at 37 °C by LC-MS; type: physicochemical; conditions: vehicle (20% DMSO in distilled water), data not shown
[3] = system: microglia and motor neurons in the ventral spinal cord; assay: Iba1 and ChAT immunostaining of lumbar spinal cord; type: in vivo; conditions: Sod1^G86R mice
Method: We then sought to characterize whether BW modulated microglial physiology and used RT-qPCR to measure microglia related genes in the cervical and thoracic spinal cord of animals treated with either vehicle or 3 mg/kg/d of BW. […] We next wanted to see if these changes in gene expression were accompanied by modification of microglial activation in spinal cord of treated mice. Iba1 + cells were classified in 4 different activation states (resting, activated, phagocytic or dystrophic).
Lumbar spinal cord was dissected and cryopreserved before OCT inclusion. Samples were cut with a cryostat (Leica CM30505) at 20 µm of thickness. Iba1 (1:100, Sigma cat#SAB2702364, RRID: AB_2820253) and ChaT (1:100, Millipore cat#AB144P) immunostainings were performed using DAB peroxidase technique to assess microglial integrity and motor neuron degeneration. Images were acquired using a Leica DM750 microscope at × 10 magnification. Cells were counted in the ventral horn in a standardized zone with n = 4–10 images per animal, and subsequently classified using FIJI software (RRID: SCR_002285)[23],[24].

in vivo = conditions: CD-1, mouse, po, 10 mg/kg
mitral valve = assay: Mitral valve thickness by histology (hematoxylin/eosin); type: in vivo; conditions: Sod1^G86R mice, 3 mg/kg/d; vehicle 57.7 µm
Method: To this aim, we measured mitral valve thickness using histology (Fig. 3). […] The lack of beneficial effect of BW on survival and motor function is not due to the developpement of valvulopathy nor cardiac failure. Thus, BW is not protective in Sod1^G86R mice independently of any potential cardiotoxicity.
After dissection and rinse with PBS 1X, hearts were fixed for 72 h in formaldehyde 4% solution. After paraffin inclusion, cuts of 4 µm thickness were made. Hematoxylin/eosin staining was performed on these cuts. Inclusion and staining were performed by the department of histopathology and embyology of the mouse clinical institute (ICS, Illkirch-Graffenstaden). Valve imaging was performed with a Leica DFC425C camera mounted on a microscope Leica DM750, at × 10 magnification (cat# 506228, 10x/0.25 HI PLAN ∞/−), with LAS V4.8 software (Leica Microsystems). […] Average thickness was determined by rapporting the area on the length of the leaflet.

Ca^2+ channel, vs = assay: Radioligand binding competition dose-response (Euroscreen), Ca2+ channel verapamil site
Method: as §1

5-HT2C = target: T2, 5-HT2C (Homo sapiens, UniProt P28335); assay: Single-concentration radioligand binding screen (Eurofins Cerep), 5-HT2C; conditions: single concentration 10 µM screen, [3H]mesulergine
T2 construct: Euroscreen FAST (contract assay)
T2 sequence (P28335 33-458): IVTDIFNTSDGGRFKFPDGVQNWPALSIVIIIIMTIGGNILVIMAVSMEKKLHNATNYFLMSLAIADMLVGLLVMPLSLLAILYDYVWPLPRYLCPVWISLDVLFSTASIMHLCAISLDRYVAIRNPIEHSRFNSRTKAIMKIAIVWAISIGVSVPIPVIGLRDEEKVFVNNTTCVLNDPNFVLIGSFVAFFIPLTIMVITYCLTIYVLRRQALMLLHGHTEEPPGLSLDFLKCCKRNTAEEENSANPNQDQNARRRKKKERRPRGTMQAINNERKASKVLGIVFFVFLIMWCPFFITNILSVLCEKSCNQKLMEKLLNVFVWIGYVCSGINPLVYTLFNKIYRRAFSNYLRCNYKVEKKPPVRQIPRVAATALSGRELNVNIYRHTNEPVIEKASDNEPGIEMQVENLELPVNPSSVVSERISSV
Method: as §1

NET [4] = target: T1, NET; assay: Radioligand binding competition dose-response (Euroscreen), norepinephrine transporter; conditions: dose-response study, maximal concentration 10 µM, 3H]nisoxetine
Method: as §1

[5] = Plasma pharmacokinetics after IV, PO or SC administration; conditions: for half-life / bioavailability: in vivo
[6] = IV 2 mg/kg, individual mice n1-n3, 2 mg/kg
[7] = PO 10 mg/kg, individual mice n1-n3, 10 mg/kg
[8] = SC 10 mg/kg, individual mice n1-n3, 10 mg/kg

T1 sequence (P23975 whole entry): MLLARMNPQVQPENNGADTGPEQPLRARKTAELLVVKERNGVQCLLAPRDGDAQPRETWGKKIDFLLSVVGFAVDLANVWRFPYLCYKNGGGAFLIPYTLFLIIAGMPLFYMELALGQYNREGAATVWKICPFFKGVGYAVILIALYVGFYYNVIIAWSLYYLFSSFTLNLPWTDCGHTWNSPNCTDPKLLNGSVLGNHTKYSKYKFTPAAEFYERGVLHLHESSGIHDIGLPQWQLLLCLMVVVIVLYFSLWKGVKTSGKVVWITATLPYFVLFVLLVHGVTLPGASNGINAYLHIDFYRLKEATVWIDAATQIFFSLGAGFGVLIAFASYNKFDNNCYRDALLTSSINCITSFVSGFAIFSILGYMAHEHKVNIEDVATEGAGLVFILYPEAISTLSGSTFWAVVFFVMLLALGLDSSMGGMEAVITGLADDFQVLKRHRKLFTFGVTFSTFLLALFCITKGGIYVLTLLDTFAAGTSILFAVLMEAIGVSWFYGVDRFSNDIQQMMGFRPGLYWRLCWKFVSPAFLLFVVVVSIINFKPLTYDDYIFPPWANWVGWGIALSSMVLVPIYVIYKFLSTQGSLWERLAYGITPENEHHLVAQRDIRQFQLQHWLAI

With `CC(N)Cc1c[nH]c2ccc(OCc3cccs3)cc12` (stereo not shown) [BW, 1-[5-(thiophen-2-ylmethoxy)-1H-indol-3-yl]propan-2-amine] the inhibition at 10 µM (NET [1]) was 68.7%, the “stable at 37 °C in vehicle” value [2] was “at least 2 months” and the “microglial morphology (proportion of resting, activated, phagocytic, dystrophic Iba1+ cells)” value ([3]; 3 mg/kg/d vs vehicle) was “No statistically significant difference”. The “loss of motor neurons (ChAT positive cells in the ventral spinal cord)” value ([3]; 3 mg/kg/d) was “did not modify”, the Tmax (in vivo) was 30 min and the mitral valve thickness (mitral valve) was 60.2 µm. The pIC50 (Ca^2+ channel, vs; [3H]D888 competition) was 5.21, the “%Binding inhibition at 10 µM” value (Ca^2+ channel, vs; dose-response study, maximal concentration 10 µM, [3H]D888) was 51.29% and the “pIC50 difference as compared to 5-HT2BR” value (Ca^2+ channel, vs; verapamil site of calcium channel vs 5-HT2BR) was 2.3 log10. The inhibition at 10 µM (5-HT2C) was 97.8%, the inhibition at 10 µM (NET [4]) was 74.4% and the “plasma detection at 24 h” value ([5]; 24 h after a single administration (data not shown)) was “no compound could be detected”. It also gave a half-life ([5]; CD-1, mouse, iv, 2 mg/kg, T1/2, IV 2 mg/kg, individual mice n1-n3) of 58.8 min, a half-life ([5]; CD-1, mouse, iv, 2 mg/kg, T1/2, IV 2 mg/kg, mean) of 55.8 min and a bioavailability ([5]; CD-1, mouse, po, 10 mg/kg, PO 10 mg/kg) of 4.72%. It also gave a half-life ([5]; CD-1, mouse, po, 10 mg/kg, T1/2, PO 10 mg/kg, mean) of 153 min, a bioavailability ([5]; CD-1, mouse, sc, 10 mg/kg, SC 10 mg/kg) of 35% and a half-life ([5]; CD-1, mouse, sc, 10 mg/kg, T1/2, SC 10 mg/kg, individual mice n1-n3) of 68.4 min. For the same compound, the half-life ([5]; CD-1, mouse, sc, 10 mg/kg, T1/2, SC 10 mg/kg, mean) was 82.2 min, the AUC0-inf ([5]; CD-1, mouse, plasma, iv, 2 mg/kg, AUC0-inf, IV 2 mg/kg, individual mice n1-n3) was 289 ng·h/mL and the AUC0-inf ([5]; CD-1, mouse, plasma, iv, 2 mg/kg, AUC0-inf, IV 2 mg/kg, mean) was 236 ng·h/mL. The C0 ([5]; CD-1, mouse, plasma, iv, 2 mg/kg, C0, IV 2 mg/kg, individual mice n1-n3) was 406 ng/mL, the C0 ([5]; CD-1, mouse, plasma, iv, 2 mg/kg, C0, IV 2 mg/kg, mean) was 354 ng/mL and the AUC0-inf ([5]; CD-1, mouse, plasma, po, 10 mg/kg, AUC0-inf, PO 10 mg/kg, individual mice n1-n3) was 239 ng·h/mL. For the same compound, the AUC0-inf ([5]; CD-1, mouse, plasma, po, 10 mg/kg, AUC0-inf, PO 10 mg/kg, mean) was 278 ng·h/mL, the Cmax ([5]; CD-1, mouse, plasma, po, 10 mg/kg, Cmax, PO 10 mg/kg, mean) was 77 ng/mL and the Tmax ([5]; CD-1, mouse, plasma, po, 10 mg/kg, Tmax, PO 10 mg/kg, mean) was 34.8 min. It also gave an AUC0-inf ([5]; CD-1, mouse, plasma, sc, 10 mg/kg, AUC0-inf, SC 10 mg/kg, individual mice n1-n3) of 2030 ng·h/mL, an AUC0-inf ([5]; CD-1, mouse, plasma, sc, 10 mg/kg, AUC0-inf, SC 10 mg/kg, mean) of 2070 ng·h/mL and a Cmax ([5]; CD-1, mouse, plasma, sc, 10 mg/kg, Cmax, SC 10 mg/kg, individual mice n1-n3) of 1100 ng/mL. The Cmax ([5]; CD-1, mouse, plasma, sc, 10 mg/kg, Cmax, SC 10 mg/kg, mean) was 1020 ng/mL, the Tmax ([5]; CD-1, mouse, plasma, sc, 10 mg/kg, Tmax, SC 10 mg/kg, mean) was 11.4 min and the AUC0-inf [5, 6] was 221 ng·h/mL and 199 ng·h/mL. For the same compound, the AUCExtra [5, 6] was 4.8% and 3.5% and 4.5%, the C0 [5, 6] was 290 ng/mL and 366 ng/mL and the T1/2 [5, 6] was 50.4 min and 58.8 min. The AUCExtra ([5]; IV 2 mg/kg, mean) was 4.3%, the AUC0-inf [5, 7] was 294 ng·h/mL and 302 ng·h/mL and the AUCExtra [5, 7] was 29.9% and 7.2% and 1.0%. For the same compound, the Cmax [5, 7] was 36.5 ng/mL and 61.5 ng/mL and 132 ng/mL, the T1/2 [5, 7] was 270 min and 121 min and 67.8 min and the Tmax [5, 7] was 15 min and 60 min. The AUCExtra ([5]; PO 10 mg/kg, mean) was 12.7%, the AUC0-inf [5, 8] was 2246 ng·h/mL and 1938 ng·h/mL and the AUCExtra [5, 8] was 0.7% and 1.4% and 3.3%. For the same compound, the Cmax [5, 8] was 1010 ng/mL and 935 ng/mL, the T1/2 [5, 8] was 72 min and 99 min and the Tmax [5, 8] was 0.25 h (2×) and 0.08 h. For the same compound, the AUCExtra ([5]; SC 10 mg/kg, mean) was 1.8%.
